Assay results as given in EP4640694A1, “SELF-ASSEMBLING PEPTIDE” (CYTOPORT (TIANJIN) BIOTECHNOLOGY CO., LTD, priority 2022, dated 2025).
Where a SMILES comes first, the peptide text is derived from it. [ ]: non-standard residue; d: D form. Hyp = O=C(O)[C@@H]1C[C@@H](O)CN1

What was measured:
HepG2 = assay: Cell condition after culture: 5-day viability of cells harvested from spheroids; type: cell-based; details: cells harvested after 15 days in 0.1 wt.% peptide, 5-day viability test
From the text: In this experiment, cell spheroids cultured in Experiment III using the polypeptides as shown in SEQ ID NO.: 13 (IIIIIGOGIIGPGGEGPGGE) of the present invention at a concentration of 0.1 wt.% initiated by high-glucose medium were collected by centrifugation and digested into single cells. The applicability of the material of the present invention in cell culture and biomedical field were further evaluated by comparing the cell viability of cells cultured with the material of the present invention with that of cells cultured without the material of the present invention.
The cell spheroids in Experiment III were collected by centrifugation after 15 days of culture, and the cell spheroids were digested into single cells using trypsin, then centrifuged and collected, and an appropriate amount of high-glucose medium was added to the collected cells to prepare cell suspensions at concentrations of 5×10^5 and 5×10^4 cells/mL. Cell suspensions at a concentration of 5 ×10^4 cells/mL were inoculated into 96-well plates so that each well contained 5,000 cells. A cell suspension at a concentration of 5×10^4 cells/mL was prepared according to the method in […] for preparing a cell suspension at a concentration of 5×10^5 cells/mL and it was inoculated into a 96-well plate so that each well contained 5,000 cells, which served as a control group for this experiment. […]

HepG2 cells = assay: Cytocompatibility: relative viability (CCK-8) and cell counting over 5 days; type: cell-based; details: 0.1%, 0.3%, 0.5%, 0.7% peptide, 5 days without medium change
Description: The method in Experiment I for preparing a cell suspension at a concentration of 5×10^5 cells/mL was used to prepare a cell suspension at a concentration of 5×10^4 cells/mL. The cells obtained at a concentration of 5×10^4 cells/mL were inoculated into 96-well plates with each well containing about 5,000 cells. In the experimental groups, the self-assembling peptide sol prepared according to the method in Example 2 was added to achieve the concentrations of polypeptide of 0.1%, 0.3%, 0.5%, and 0.7% in the final system. In the control group, an equal volume of PBS buffer was added to replace the peptide solution, respectively. […] During the experiment, 10% of the culture volume of CCK-8 kit was added every 24 hours, and after incubation for 30 minutes, the OD values of each group were measured using an enzyme labeler (parameter setting: primary wavelength of 450 nm, secondary wavelength of 630 nm), and all experiments were set up with 5 parallel groups, and the results of the experiments were shown in Figure 9A. Relative cell viability was calculated using the formula below: Relative cell viability (%) = (At−A0t)/(A1−A01) × 100%; [formula]
Wherein At is the average OD values measured after t days of culturing cells. A0t is the average value of blank background measured after t days. […]

[1] = test system: mouse mesenchymal stem cells; assay: Cell storage at 4°C, Calcein-AM/PI live/dead staining by flow cytometry; type: cell-based; details: for survival rate of mouse mesenchymal stem cells: 3D storage group, 0.05% peptide
Description: Experimental Methods: Storage of mouse mesenchymal stem cells at 4°C was taken as an example in this experiment. The isolated mouse mesenchymal stem cells were mixed well by pipetting, […] aliquots were dispensed into freezing tubes, and mixed well by pipetting so that their cell concentration was about 1×10^6 cells/mL. In 3D group, mouse serum, 1% of double antibody of 50% MAP+50% SFEM storage solution and the polypeptide as shown in SEQ ID NO.:20 (FLIVIGOGIIGOGGEGPGGE) were added to a final concentration of 0.05%. In 2D group, mouse serum and 1% of double antibody of 50% MAP+50% SFEM storage solution were added, followed by storage in a 4°C refrigerator.
Cell viability test: • (1) The preserved cells were thoroughly pipetted and mixed well, 500 µL of each cell suspension was taken into a 1.5 mLEP tube, PBS was added for washing, followed by centrifugation at 1,500 rpm for 10 minutes; and • (2) The supernatant was discarded, and the cells were resuspended in 150 µL of 1% PBA solution. Then, 150 µL of live/dead cell staining working solution was added, mixed thoroughly, and incubated at 37°C in a light-protected manner for 15 minutes. The samples were analyzed using a flow cytometer.

[2] = Rheological experiment, energy storage modulus (G') of peptide/serum mixture; type: physicochemical; details: 0.5% peptide, 10 v/v% fetal bovine serum, neutral pH
From the text: Experimental Methods: Preparation of Self-Assembling Peptide Material Samples: 2 wt% of the self-assembling peptide solution obtained in Example 2 was used, the sequences as shown in SEQ ID NO:1 (IIIIGSIIGPGGDGPGGV), SEQ ID NO:2 (IIIIGSIIGPGGEGPGGV), SEQ ID NO:3 (IIIIGSIIGOGGEGPGGV), SEQ ID NO:4 (IIIIGSIIGOGGGEGPGGV), SEQ ID NO:5 (IIIIGSIIGOGGEGPGGGV), SEQ ID NO:6 (IIIIGSIIGOGGEGPGV), SEQ ID NO:7 (IIIIGSIIGOGAEGPGGV), SEQ ID NO:8 (IIIIIGSIIOGGAEGPGGV), SEQ ID NO:9 (IIIIIGSIIGOGGVGPGGV), and SEQ ID NO: 10 (IIIIIIGSIIGOGAEGPGGVGPGGV).
Preparation of hydrogel samples formed by self-assembling peptide solutions in response to cell complete medium: 2 wt% of stock solution of self-assembling peptides obtained in Example 2 was diluted with phosphate buffer, added by fetal bovine serum to achieve a mixture solution with a final concentration of self-assembling peptide of 0.5%, a final concentration of serum of 10 v/v% with a neutral pH.
The energy storage modulus (G') of the mixture solution was measured on a 20 mm plate using MARS 60 rheometer. In order to determine the rate of formation of three-dimensional nanomatrix, the solution was placed on a plate for testing immediately after preparation. A gap of 500µm was used, mineral oil was added to the gap to prevent dehydration of the samples, and data collection commenced immediately. Dynamic Time-Scanning experiment (DTS) was performed to monitor changes in energy storage modulus (G') with time (1 Hz frequency, 1% strain) for 2000 min.

erythrocytes [3] = assay: Erythrocyte support by different sequences under liquid conditions; type: cell-based; details: 0.01 wt% peptide, 0.1 wt% fibronectin, 1×10^8 erythrocytes
Description: Experimental Methods: PBS buffer was used to separately prepare a concentration of 0.1 wt% stock solutions of self-assembling peptides as shown in SEQ ID NO.: 1 (IIIIIGSIIGPGGDGPGGV), SEQ ID NO.: 2 (IIIIIGSIIGPGGEGPGGV), SEQ ID NO.: 3 (IIIIIGSIIGOGGEGPGGV), and SEQ ID NO.: 7 (IIIIIGSIIGOGAEGPGGV). These solutions were autoclaved.
Using 2 mL clear glass vials, 4 materials were prepared at concentrations of 0.1 wt%, 0.05 wt%, and 0.01 wt% in 2 mL of self-assembling peptide solution (containing a final concentration of 0.1 wt% of fibronectin) and a blank group (without self-assembling peptide solution, but containing 0.1 wt% of fibronectin). A stock solution of at a concentration of 5×10^9 erythrocytes was added to each sample to a final concentration of 1×10^8, and the mixture was homogenized by pipetting. Photographs were taken every 4 hours to compare the effects of different materials on the support for erythrocytes.

erythrocytes [4] = assay: Erythrocyte support experiment with different initiator components; type: cell-based
Description: Experimental Methods: […] of erythrocyte stock solution (9.17×10^9/mL) was taken and diluted to 10 mL (9.17×10^7/mL) with 10 mM PBS, 4.5mL of erythrocyte dilution was added to a 10 ml of round-bottom tube and 4.5 mL of 4 mmol/L Calcein-AM solution was added, and the mixture was incubated at 37°C for 20 min and then centrifuged at 4°C, 1500r/min for 3 min. The supernatant was removed, and the pellet was resuspended in PBS, and repeated for 5 times to obtain about 1.5 mL of washed erythrocyte resuspension (1×10^8/mL) for latter use.
Experimental Results: PBS buffer was added to the erythrocyte resuspension solution to dilute the erythrocytes to 1×10^7/mL, and the mixture was allowed to stand for 4 hours, and the result was shown in Tube A in Figure 6.
The 1 wt% of self-assembling peptide solution (SEQ ID NO.:3) obtained in Example 2 was added ro make the final peptide concentration in the system of 0.05 wt% and the final concentration of erythrocytes of 1×10^7/mL, and the mixture was allowed to stand for 4 hours, and the result was shown in Tube B in Figure 6.
The mixed solution of polypeptide as shown in SEQ ID NO.:3 with lysine obtained in Example 3 was added to the erythrocytes resuspension solution, i.e., the polypeptide formed a three-dimensional network scaffold material in the presence of lysine, achieving a final peptide concentration in the system of 0.05 wt.%, mixing well and standing, and the result was shown in Tube C in Figure 6.
(§1) The mixted solution of self-assembling peptide as shown in SEQ ID NO.:3 with gentamicin obtained in Example 2 was added to the erythrocytes resuspension solution, i.e., the polypeptide formed the three-dimensional network scaffold material in the presence of gentamicin, achieving a final peptide concentration in the system of 0.05 wt.%, mixing well and standing, and the result was shown in Tube D in Figure 6.
as §1, with “with polylysine” for “with gentamicin”, “the self-assembling peptide” for “the polypeptide”, “of polylysine,” for “of gentamicin,”, “Tube E” for “Tube D”
as §1, with “with fibrinogen” for “with gentamicin”, “Example 3” for “Example 2”, “the self-assembling peptide” for “the polypeptide”, “of fibrinogen,” for “of gentamicin,”, “Tube F” for “Tube D”

Compound: CC[C@H](C)[C@H](N)C(=O)N[C@H](C(=O)N[C@H](C(=O)N[C@H](C(=O)N[C@H](C(=O)NCC(=O)N1C[C@H](O)C[C@H]1C(=O)NCC(=O)N[C@H](C(=O)N[C@H](C(=O)NCC(=O)N1CCC[C@H]1C(=O)NCC(=O)NCC(=O)N[C@@H](CCC(=O)O)C(=O)NCC(=O)N1CCC[C@H]1C(=O)NCC(=O)NCC(=O)N[C@@H](CCC(=O)O)C(=O)O)[C@@H](C)CC)[C@@H](C)CC)[C@@H](C)CC)[C@@H](C)CC)[C@@H](C)CC)[C@@H](C)CC [SEQ ID NO.: 13, IIIIIGOGIIGPGGEGPGGE] (H-IIIIIG[Hyp]GIIGPGGEGPGGE-OH)
- cell viability of harvested cells compared with control group (HepG2): slightly better than that of the control group
- growth curve (cell counting) over 5 days (HepG2 cells): grew with a relatively uniform and stable proliferation rate
- relative cell viability over 5 days (CCK-8) (HepG2 cells): uniform and continuous steady increase in cell viability

Compound: FLIVIGOGIIGOGGGEGPGGE [SEQ ID NO.: 20]
- survival rate of mouse mesenchymal stem cells ([1]; day 3 of storage (2D group 67%)): 79%
- survival rate of mouse mesenchymal stem cells ([1]; day 5 of storage (2D group 43%)): 71%
- increase in survival versus 2D storage ([1]; day 5 of storage): ~30%

Compound: IIIIGSIIGOGGGEGPGGV [SEQ ID NO.: 4]
- hydrogel structure and elasticity in response to serum [2]: could still form a hydrogel structure but with weaker elasticity

Compound: IIIIIGSIIGOGGGEGPGGGV [SEQ ID NO.: 5]
- hydrogel structure and elasticity in response to serum [2]: could still form a hydrogel structure but with weaker elasticity

Compound: IIIIIGSIIGOGGGEGPGGV [SEQ ID NO.: 3]
- time at which significant sedimentation of erythrocytes was shown (erythrocytes [3]): 32 h
- erythrocyte distribution (erythrocytes [4]; Tube B: 0.05 wt% peptide alone, no initiator, 1×10^7/mL erythrocytes, 4 hours): significant sedimentation
- erythrocyte distribution (erythrocytes [4]; Tube C: 0.05 wt.% peptide with lysine): stereoscopic distribution
- erythrocyte distribution (erythrocytes [4]; Tube D: 0.05 wt.% peptide with gentamicin): stereoscopic distribution
- erythrocyte distribution (erythrocytes [4]; Tube E: 0.05 wt.% peptide with polylysine): stereoscopic distribution
- erythrocyte distribution (erythrocytes [4]; Tube F: 0.05 wt.% peptide with fibrinogen): three-dimensional stereoscopic dispersion of the erythrocytes

Compound: IIIIIGSIIGOGGGEGPGV [SEQ ID NO.: 6]
- hydrogel structure and elasticity in response to serum [2]: could still form a hydrogel structure but with weaker elasticity
